One test concerns the target T1, Wee1 kinase domain (Homo sapiens, UniProt P30291).
T1 construct: Wee1 kinase domain was purchased from Carna (catalog #05-177); purchased Carna 05-177
The test is described as follows: Wee1 Kinase Biochemical Assay (ADP-Glo). The settings on record: 15 uM ATP. The method, boiled down:
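The reaction mix held 1 nM Wee1 kinase domain, 15 uM ATP and 2 ng/mL Poly(Lys,Tyr 4:1) substrate and was left for 4 hours at 25 °C. ADP production was then measured with ADP-Glo, and percent inhibition was derived relative to DMSO and a saturating Wee1 inhibitor.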
(In general: ADP-Glo first removes unused ATP, then detects ADP through luciferase.)

Test [1] has as its system phosphorylation of Cdc2 Y15 (Wee1 substrate) in A427 cells. The test is described as follows: Phosphorylated Cdc2 MSD Electrochemiluminescence Assay. The format is cell-based. Particulars: Homo sapiens. The method, boiled down:
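Read-out: percent residual phospho-Cdc2 Y15 relative to DMSO and positive-control Wee1 inhibitor, measured by MSD electrochemiluminescence capture/detection antibody assay in cell lysates. A427 cells received duplicate 3-fold compound dilution series 20 h post-seeding, with 6 h total incubation at 37 °C.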

Setting [2] is: class symbols, 1 nM Wee1 enzyme, 4 hours at 25° C.
Setting [3] is: A-427, class symbols, read-out: A427 pCDC2 MSD IC50.

Where two headings read alike, the source gives them in different places.

T1 sequence (P30291 299-569 limits assumed): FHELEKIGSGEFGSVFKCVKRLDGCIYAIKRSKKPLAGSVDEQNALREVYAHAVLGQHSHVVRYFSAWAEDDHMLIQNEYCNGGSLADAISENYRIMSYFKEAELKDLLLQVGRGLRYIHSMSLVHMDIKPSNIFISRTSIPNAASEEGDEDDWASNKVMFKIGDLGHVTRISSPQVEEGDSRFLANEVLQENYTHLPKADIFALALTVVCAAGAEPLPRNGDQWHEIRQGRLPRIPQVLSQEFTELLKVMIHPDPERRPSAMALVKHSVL

For the compound `CN1C[C@@H]2CN(c3ccc(Nc4ncc5c(n4)N(c4cccc(N6CCCC6=O)n4)[C@@H]4CC(C)(C)OC[C@]54C)cc3)C[C@@H]2C1` [Example 694, 1-(6-((4bR,8aR)-4b,7,7-trimethyl-2-((4-((3aR,6aS)-5-methylhexahydropyrrolo[3,4-c]pyrrol-2(1H)-yl)phenyl)amino)-4b,7,8,8a-tetrahydropyrano[3′,4′:4,5]pyrrolo[2,3-d]pyrimidin-9(5H)-yl)pyridin-2-yl)pyrrolidin-2-one], the IC50 against Wee1 kinase domain (setting [2]) is below 10 nM; in test [1] (setting [3]), 100 to 1000 nM.

In the case of `CC1(C)C[C@H]2N(c3cccc(N=S(C)(C)=O)n3)c3nc(Nc4ccn(C5CCOCC5)c(=O)c4)ncc3[C@@]2(C)CO1` (single isomer, unassigned) [Example 233], the IC50 was below 10 nM on Wee1 kinase domain (Wee1 kinase domain, ADP-Glo) and 100 to 1000 nM in test [1] (A-427, pCDC2 MSD).

For `CNCc1cccc(N2c3nc(Nc4ccc([C@H]5CCC(=O)N5C)cc4)ncc3[C@@]3(C)COC(C)(C)C[C@@H]23)n1` (single isomer, unassigned) [Example 54], the half-inhibitory concentration (IC50) on Wee1 kinase domain (Wee1 kinase domain, ADP-Glo) was below 10 nM; in test [1] (A-427, pCDC2 MSD), below 100 nM.

Consider `CC1(C)C[C@H]2N(c3cccc(N=S(C)(C)=O)n3)c3nc(Nc4ccc(O[C@H]5CCNC5)cc4)ncc3[C@@]2(C)CO1` (single isomer, unassigned) [Example 153], for which the IC50 at Wee1 kinase domain (Wee1 kinase domain, ADP-Glo) is below 10 nM; in test [1] (A-427, pCDC2 MSD), below 100 nM.

As to `Cc1cc(Nc2ncc3c(n2)N(c2cccc(N4C(=O)OC[C@@H]4C)n2)[C@@H]2CC(C)(C)OC[C@]32C)ccc1O[C@H]1CCNC1` (single isomer, unassigned) [Example 339], the IC50 against Wee1 kinase domain (Wee1 kinase domain, ADP-Glo) was below 10 nM; in test [1] (A-427, pCDC2 MSD), 100 to 1000 nM.

`Cc1cc(Nc2ncc3c(n2)N(c2cccc(N4C(=O)OC[C@@H]4C)n2)[C@@H]2CC(C)(C)OC[C@]32C)ccc1O[C@@H]1CCNC1` (single isomer, unassigned) [Example 337]: the IC50 was below 10 nM against Wee1 kinase domain (Wee1 kinase domain, ADP-Glo) and 100 to 1000 nM in test [1] (A-427, pCDC2 MSD).

`CC1(C)C[C@H]2N(c3cccc(N=S(C)(C)=O)n3)c3nc(Nc4cn(C5COC5)cn4)ncc3[C@@]2(C)CO1` (single isomer, unassigned) [Example 232]: the IC50 on Wee1 kinase domain (Wee1 kinase domain, ADP-Glo) is below 10 nM; in test [1] (A-427, pCDC2 MSD), 1000 to 10000 nM.

For `CC1(C)C[C@H]2N(c3cccc(N4CCCC4=O)n3)c3nc(Nc4ccc(C5CNC5)cc4)ncc3[C@@]2(C)CO1` [Example 662, 1-(6-((4bR,8aR)-2-((4-(azetidin-3-yl)phenyl)amino)-4b,7,7-trimethyl-4b,7,8,8a-tetrahydropyrano[3′,4′:4,5]pyrrolo[2,3-d]pyrimidin-9(5H)-yl)pyridin-2-yl)pyrrolidin-2-one], the half-inhibitory concentration (IC50) on Wee1 kinase domain (setting [2]) is below 10 nM; in test [1] (setting [3]) it was 100 to 1000 nM.

Consider `CN(C)Cc1cccc(N2c3nc(Nc4ccn(C5CCOCC5)c(=O)c4)ncc3[C@@]3(C)COC(C)(C)C[C@@H]23)n1` (single isomer, unassigned) [Example 387], for which the IC50 against Wee1 kinase domain (Wee1 kinase domain, ADP-Glo) is below 10 nM; in test [1] (A-427, pCDC2 MSD), 1000 to 10000 nM.

For the compound `CN1CCC(c2ncc(Nc3ncc4c(n3)N(c3cccc(N=S(C)(C)=O)n3)[C@@H]3CC(C)(C)OC[C@]43C)s2)CC1` (single isomer, unassigned) [Example 221], the IC50 is below 10 nM on Wee1 kinase domain (Wee1 kinase domain, ADP-Glo) and below 100 nM in test [1] (A-427, pCDC2 MSD).

As for `CNCc1cccc(N2c3nc(Nc4ccccc4)ncc3[C@@]3(C)COC(C)(C)C[C@@H]23)n1` (single isomer, unassigned) [Example 45], the IC50 against Wee1 kinase domain (Wee1 kinase domain, ADP-Glo) was below 10 nM; in test [1] (A-427, pCDC2 MSD), 100 to 1000 nM.

For `CC1(C)C[C@H]2N(c3cccc(N=S(C)(C)=O)n3)c3nc(NC(=O)C4CC4)ncc3[C@@]2(C)CO1` (single isomer, unassigned) [Example 399], the figures for the IC50 (against Wee1 kinase domain (setting [2]); in test [1] (setting [3])) were below 10 nM and 100 to 1000 nM, respectively.

As for `Cc1cccc(N2c3nc(Nc4ccc(N5CCN(C)CC5)cc4)ncc3[C@@]3(C)COC(C)(C)C[C@@H]23)n1` (single isomer, unassigned) [Example 759], the half-inhibitory concentration (IC50) at Wee1 kinase domain (setting [2]) is below 10 nM; in test [1] (setting [3]), 100 to 1000 nM.

Turning to `CC1(C)C[C@H]2N(c3cccc(N4CCOC4=O)n3)c3nc(Nc4ccc([C@@H]5CNC[C@@H]5F)cc4)ncc3[C@@]2(C)CO1` [Example 675, 3-(6-((4bR,8aR)-2-((4-((3R,4R)-4-fluoropyrrolidin-3-yl)phenyl)amino)-4b,7,7-trimethyl-4b,7,8,8a-tetrahydropyrano[3′,4′:4,5]pyrrolo[2,3-d]pyrimidin-9(5H)-yl)pyridin-2-yl)oxazolidin-2-one], the concentration for half-maximal inhibition (IC50) was below 10 nM at Wee1 kinase domain (setting [2]) and 100 to 1000 nM in test [1] (setting [3]).

For `Cc1cc(Nc2ncc3c(n2)N(c2cccc(N4CCOC4=O)n2)[C@@H]2CC(C)(C)OC[C@]32C)ccc1N1C[C@@H]2C[C@H]1CN2C` [Example 654, 3-(6-((4bR,8aR)-4b,7,7-trimethyl-2-((3-methyl-4-((1S,4S)-5-methyl-2,5-diazabicyclo[2.2.1]heptan-2-yl)phenyl)amino)-4b,7,8,8a-tetrahydropyrano[3′,4′:4,5]pyrrolo[2,3-d]pyrimidin-9(5H)-yl)pyridin-2-yl)oxazolidin-2-one], the IC50 against Wee1 kinase domain (setting [2]) is below 10 nM; in test [1] (setting [3]), 100 to 1000 nM.

For the compound `CN1C[C@H]2C[C@@H]1CN2c1ccc(Nc2ncc3c(n2)N(c2cccc(N=S(C)(C)=O)n2)[C@@H]2CC(C)(C)OC[C@]32C)cc1` (single isomer, unassigned) [Example 122], the IC50 is below 10 nM on Wee1 kinase domain (Wee1 kinase domain, ADP-Glo) and below 100 nM in test [1] (A-427, pCDC2 MSD).

For the compound `CN1CC(c2ccc(Nc3ncc4c(n3)N(c3cccc(N5CCCC5=O)n3)[C@@H]3CC(C)(C)OC[C@]43C)cc2)C1` [Example 696, 1-(6-((4bR,8aR)-4b,7,7-trimethyl-2-((4-(1-methylazetidin-3-yl)phenyl)amino)-4b,7,8,8a-tetrahydropyrano[3′,4′:4,5]pyrrolo[2,3-d]pyrimidin-9(5H)-yl)pyridin-2-yl)pyrrolidin-2-one], the concentration for half-maximal inhibition (IC50) against Wee1 kinase domain (setting [2]) was below 10 nM; in test [1] (setting [3]), 100 to 1000 nM.

For the compound `CN1CC[C@H](Oc2ccc(Nc3ncc4c(n3)N(c3cccc(N5CCOC5=O)n3)[C@@H]3CC(C)(C)OC[C@]43C)cc2)C1` [Example 615, 3-(6-((4bR,8aR)-4b,7,7-trimethyl-2-((4-(((S)-1-methylpyrrolidin-3-yl)oxy)phenyl)amino)-4b,7,8,8a-tetrahydropyrano[3′,4′:4,5]pyrrolo[2,3-d]pyrimidin-9(5H)-yl)pyridin-2-yl)oxazolidin-2-one], the IC50 against Wee1 kinase domain (setting [2]) is below 10 nM; in test [1] (setting [3]), below 100 nM.

For the compound `CN1CCC[C@H]1c1cccc(N2c3nc(Nc4ccn(C5CCOCC5)c(=O)c4)ncc3[C@@]3(C)COC(C)(C)C[C@@H]23)n1` (single isomer, unassigned) [Example 393], the IC50 is below 10 nM at Wee1 kinase domain (Wee1 kinase domain, ADP-Glo) and 1000 to 10000 nM in test [1] (A-427, pCDC2 MSD).

In the case of `C[C@H]1COC(=O)N1c1cccc(N2c3nc(Nc4ccc(N5CCN(C)CC5)nc4)ncc3[C@@]3(C)COC(C)(C)C[C@@H]23)n1` (single isomer, unassigned) [Example 241], the IC50 against Wee1 kinase domain (Wee1 kinase domain, ADP-Glo) is below 10 nM; in test [1] (A-427, pCDC2 MSD) it was 100 to 1000 nM.

For the compound `CN[C@@H](C)c1cccc(N2c3nc(Nc4ccc(N5CCOCC5)cc4)ncc3[C@@]3(C)COC(C)(C)C[C@@H]23)n1` (single isomer, unassigned) [Example 537], the IC50 was below 10 nM on Wee1 kinase domain (setting [2]) and 100 to 1000 nM in test [1] (setting [3]).

For `C[C@H]1COC(=O)N1c1cccc(N2c3nc(Nc4ccc([C@H]5CCN(C)C5)cc4)ncc3[C@@]3(C)COC(C)(C)C[C@@H]23)n1` (single isomer, unassigned) [Example 306], the IC50 is below 10 nM at Wee1 kinase domain (Wee1 kinase domain, ADP-Glo) and 100 to 1000 nM in test [1] (A-427, pCDC2 MSD).

The term IC50 denotes the concentration that inhibits the measured activity by half.

Source of the values: patent US20260166039A1 (SCHRÖDINGER, INC., priority 2022, published 2026).
